According to PubChem BioAssay (NCI):
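These data come from cells grown in 96-well plates and exposed to compound for 48 hours at five concentrations. GI50 is the concentration that inhibits growth by half. TGI is the concentration that stops growth completely.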

Columns and labels:
Experiment in all cases: NCI tumour cell line growth inhibition, 48 h
MOLT-4 leukemia = test system: MOLT-4 leukemia
HL-60(TB) leukemia = test system: HL-60(TB) leukemia
CCRF-CEM leukemia = test system: CCRF-CEM leukemia
HOP-92 NSCLC = test system: HOP-92 NSCLC
SN12C renal = test system: SN12C renal
MALME-3M melanoma = test system: MALME-3M melanoma
MDA-MB-435 = test system: MDA-MB-435
HCT-15 colon = test system: HCT-15 colon
IGROV1 ovarian = test system: IGROV1 ovarian
HCT-116 colon = test system: HCT-116 colon
HOP-62 NSCLC = test system: HOP-62 NSCLC
SK-MEL-5 melanoma = test system: SK-MEL-5 melanoma
MDA-MB-231 breast = test system: MDA-MB-231 breast
EKVX NSCLC = test system: EKVX NSCLC
SF-268 CNS = test system: SF-268 CNS
A549 NSCLC = test system: A549 NSCLC
OVCAR-5 ovarian = test system: OVCAR-5 ovarian
HT29 colon = test system: HT29 colon
PC-3 prostate = test system: PC-3 prostate
KM12 colon = test system: KM12 colon
NCI-H522 lung = test system: NCI-H522 lung
786-0 renal = test system: 786-0 renal
SW-620 colon = test system: SW-620 colon
T-47D breast = test system: T-47D breast
SK-OV-3 ovarian = test system: SK-OV-3 ovarian
NCI-H460 lung = test system: NCI-H460 lung
LOX IMVI melanoma = test system: LOX IMVI melanoma
UACC-257 melanoma = test system: UACC-257 melanoma
SNB-19 CNS = test system: SNB-19 CNS
TK-10 renal = test system: TK-10 renal
HCC-2998 colon = test system: HCC-2998 colon
RPMI-8226 leukemia = test system: RPMI-8226 leukemia
M14 melanoma = test system: M14 melanoma
SR leukemia = test system: SR leukemia
DU-145 prostate = test system: DU-145 prostate
NCI-H23 lung = test system: NCI-H23 lung
NCI-H226 lung = test system: NCI-H226 lung
OVCAR-8 ovarian = test system: OVCAR-8 ovarian
SF-539 CNS = test system: SF-539 CNS
SF-295 CNS = test system: SF-295 CNS
OVCAR-4 ovarian = test system: OVCAR-4 ovarian
MCF7 breast = test system: MCF7 breast
RXF 393 renal = test system: RXF 393 renal
UO-31 renal = test system: UO-31 renal
OVCAR-3 ovarian = test system: OVCAR-3 ovarian
HS 578T breast = test system: HS 578T breast
SK-MEL-2 melanoma = test system: SK-MEL-2 melanoma
A498 renal = test system: A498 renal
NCI/ADR-RES ovarian = test system: NCI/ADR-RES ovarian
K-562 leukemia = test system: K-562 leukemia
CAKI-1 renal = test system: CAKI-1 renal
SK-MEL-28 melanoma = test system: SK-MEL-28 melanoma
COLO 205 colon = test system: COLO 205 colon
UACC-62 melanoma = test system: UACC-62 melanoma
ACHN renal = test system: ACHN renal
U251 CNS = test system: U251 CNS
BT-549 breast = test system: BT-549 breast
SNB-75 CNS = test system: SNB-75 CNS

COc1cc(/C=N/N=C(\N)NO)cc(OC)c1OC
TGI (MOLT-4 leukemia): > 100 µM
TGI (HL-60(TB) leukemia): 42.1 µM
TGI (CCRF-CEM leukemia): > 100 µM
TGI (HOP-92 NSCLC): > 100 µM
TGI (SN12C renal): > 100 µM
TGI (MALME-3M melanoma): 82.7 µM
TGI (MDA-MB-435): > 100 µM
TGI (HCT-15 colon): > 100 µM
TGI (IGROV1 ovarian): > 100 µM
TGI (HCT-116 colon): > 100 µM
TGI (HOP-62 NSCLC): > 100 µM
TGI (SK-MEL-5 melanoma): 44.7 µM
TGI (MDA-MB-231 breast): > 100 µM
TGI (EKVX NSCLC): > 100 µM
TGI (SF-268 CNS): > 100 µM
TGI (A549 NSCLC): > 100 µM
TGI (OVCAR-5 ovarian): > 100 µM
TGI (HT29 colon): > 100 µM
TGI (PC-3 prostate): > 100 µM
TGI (KM12 colon): > 100 µM
TGI (NCI-H522 lung): 80.6 µM
TGI (786-0 renal): 39.2 µM
TGI (SW-620 colon): > 100 µM
TGI (T-47D breast): > 100 µM
TGI (SK-OV-3 ovarian): > 100 µM
TGI (NCI-H460 lung): > 100 µM
TGI (LOX IMVI melanoma): > 100 µM
TGI (UACC-257 melanoma): > 100 µM
TGI (SNB-19 CNS): > 100 µM
TGI (TK-10 renal): > 100 µM
TGI (HCC-2998 colon): > 100 µM
TGI (RPMI-8226 leukemia): > 100 µM
TGI (M14 melanoma): > 100 µM
TGI (SR leukemia): 71.2 µM
TGI (DU-145 prostate): > 100 µM
TGI (NCI-H23 lung): > 100 µM
TGI (NCI-H226 lung): 73.8 µM
TGI (OVCAR-8 ovarian): 37.9 µM
TGI (SF-539 CNS): 75.7 µM
TGI (SF-295 CNS): 53.2 µM
TGI (OVCAR-4 ovarian): > 100 µM
TGI (MCF7 breast): 85.9 µM
TGI (RXF 393 renal): > 100 µM
TGI (UO-31 renal): > 100 µM
TGI (OVCAR-3 ovarian): > 100 µM
TGI (HS 578T breast): > 100 µM
TGI (SK-MEL-2 melanoma): > 100 µM
TGI (A498 renal): > 100 µM
TGI (NCI/ADR-RES ovarian): 36.3 µM
TGI (K-562 leukemia): 49.2 µM
TGI (CAKI-1 renal): > 100 µM
TGI (SK-MEL-28 melanoma): > 100 µM
TGI (COLO 205 colon): > 100 µM
TGI (UACC-62 melanoma): 50.5 µM
TGI (ACHN renal): 72 µM
TGI (U251 CNS): > 100 µM

CCCCc1n(Cc2ccc3ccccc3c2)c2ccccc2[n+]1Cc1ccc2ccccc2c1
GI50 (OVCAR-5 ovarian): 0.521 µM
TGI (OVCAR-5 ovarian): 1.9 µM
GI50 (UACC-257 melanoma): 0.925 µM
TGI (UACC-257 melanoma): 2.23 µM
GI50 (ACHN renal): 1.4 µM
TGI (ACHN renal): 2.82 µM

N=C(N)c1ccc(-c2ccc(-c3ccc(Cl)c(Cl)c3)s2)cc1
GI50 (HL-60(TB) leukemia): 1.7 µM
TGI (HL-60(TB) leukemia): 4.23 µM
GI50 (CCRF-CEM leukemia): 1.54 µM
TGI (CCRF-CEM leukemia): 4.26 µM
GI50 (BT-549 breast): 6.39 µM
TGI (BT-549 breast): 50 µM
GI50 (RPMI-8226 leukemia): 1.89 µM
TGI (RPMI-8226 leukemia): 4.37 µM
GI50 (DU-145 prostate): 1.75 µM
TGI (DU-145 prostate): 3.13 µM
GI50 (SK-MEL-2 melanoma): 2.51 µM
TGI (SK-MEL-2 melanoma): 5.8 µM

O=C(c1cccs1)c1nccc2c1cnc1ccccc12
TGI (MOLT-4 leukemia): > 100 µM
TGI (HL-60(TB) leukemia): > 100 µM
TGI (CCRF-CEM leukemia): > 100 µM
TGI (HOP-92 NSCLC): > 100 µM
TGI (SN12C renal): > 100 µM
TGI (MALME-3M melanoma): > 100 µM
TGI (MDA-MB-435): > 100 µM
TGI (HCT-15 colon): > 100 µM
TGI (HCT-116 colon): > 100 µM
TGI (HOP-62 NSCLC): > 100 µM
TGI (SK-MEL-5 melanoma): > 100 µM
TGI (MDA-MB-231 breast): > 100 µM
TGI (EKVX NSCLC): > 100 µM
TGI (SF-268 CNS): 98.6 µM
TGI (A549 NSCLC): > 100 µM
TGI (OVCAR-5 ovarian): > 100 µM
TGI (HT29 colon): > 100 µM
TGI (PC-3 prostate): > 100 µM
TGI (KM12 colon): > 100 µM
TGI (786-0 renal): > 100 µM
TGI (SW-620 colon): > 100 µM
TGI (T-47D breast): > 100 µM
TGI (SK-OV-3 ovarian): > 100 µM
TGI (NCI-H460 lung): > 100 µM
TGI (LOX IMVI melanoma): > 100 µM
TGI (UACC-257 melanoma): > 100 µM
TGI (SNB-19 CNS): > 100 µM
TGI (TK-10 renal): > 100 µM
TGI (HCC-2998 colon): > 100 µM
TGI (RPMI-8226 leukemia): > 100 µM
TGI (M14 melanoma): > 100 µM
TGI (SR leukemia): > 100 µM
TGI (SNB-75 CNS): > 100 µM
TGI (DU-145 prostate): > 100 µM
TGI (NCI-H23 lung): > 100 µM
TGI (NCI-H226 lung): > 100 µM
TGI (OVCAR-8 ovarian): > 100 µM
TGI (SF-539 CNS): > 100 µM
TGI (SF-295 CNS): > 100 µM
TGI (OVCAR-4 ovarian): > 100 µM
TGI (MCF7 breast): 72.5 µM
TGI (RXF 393 renal): 21.2 µM
TGI (UO-31 renal): > 100 µM
TGI (OVCAR-3 ovarian): > 100 µM
TGI (HS 578T breast): > 100 µM
TGI (SK-MEL-2 melanoma): > 100 µM
TGI (A498 renal): > 100 µM
TGI (NCI/ADR-RES ovarian): > 100 µM
TGI (K-562 leukemia): > 100 µM
TGI (CAKI-1 renal): > 100 µM
TGI (SK-MEL-28 melanoma): > 100 µM
TGI (COLO 205 colon): > 100 µM
TGI (UACC-62 melanoma): > 100 µM
TGI (ACHN renal): > 100 µM
TGI (U251 CNS): > 100 µM
